Publication PMC9823088, “The oral selective estrogen receptor degrader GDC-0810 (ARN-810) in postmenopausal women with hormone receptor-positive HER2-negative (HR + /HER2 −) advanced/metastatic breast cancer” (Breast Cancer Research and Treatment, 2022)

How the values were obtained:
[1] = Plasma pharmacokinetics of GDC-0810 and glucuronide metabolites; type: in vivo, human; details: steady state, 600-mg QD, non-fasted condition
Protocol: Blood samples were collected for pharmacokinetic assessments. Tumor assessments were performed at screening and every 8 weeks from cycle 1, day 1 (C1D1). Radiographic assessment of objective tumor response or disease progression was based on Response Evaluation Criteria in Solid Tumors (RECIST v1.1). Transvaginal ultrasound scans were performed to monitor endometrial thickness at screening, at every 6 months from C1D1, and at the end of treatment. Imaging with [^18F]-fluoroestradiol positron emission tomography (FES-PET) was performed to quantify ER expression in tumors and to assess for pharmacodynamic response. Further assessment details are provided in Supplementary Methods.
CYP2B6 and CYP2C enzymes. […]
Blood samples were collected for pharmacokinetic assessment on lead-in day −7 and cycle 2 day 1 (C2D1) at predose (0 hour) and postdose (0.5, 1, 1.5, 2, 3, 4, 6, 8, and 24 hours), (plus at 48 hours postdose for day−7). Full plasma pharmacokinetic profiles were obtained for GDC-0810 and its glucuronide metabolites (acyl-glucuronide and N-glucuronide) using a validated liquid chromatography/ tandem mass spectrometry method, and analyzed using non-compartmental methods for all patients in the dose escalation cohorts.
Tumor assessments were performed at screening and every 8 weeks from cycle-1, day-1 […]

[2] = tested on: MBC; parameters: method as in PMID 34906954; details: cited from earlier work
[3] = parameters: method as in PMID 32919527; details: cited from earlier work
[4] = tested on: ER; parameters: method as in PMID 25380844; details: patients receiving fulvestrant; cited from earlier work

Structure (SMILES): CC/C(=C(/c1ccc(/C=C/C(=O)O[C@@H]2O[C@H](C(=O)O)[C@@H](O)[C@H](O)[C@H]2O)cc1)c1ccc2[nH]ncc2c1)c1ccc(F)cc1Cl [GDC-0810-acyl-glucuronide]
- average plasma exposure of metabolite relative to parent GDC-0810 [1]: ~10%

Structure (SMILES): CCNCCc1ccc(CN(CC)c2cc(OC)ccc2[C@@H]2CCc3cc(O)ccc3C2)cc1 [elacestrant]
- PFS ([2]; patients with MBC who received endocrine + CDK4/6 previously): 2.8 months
- median PFS ([2]; patients with tumors harboring ESR1 mutations): 3.8 months

Structure (SMILES): C[C@]12CC[C@@H]3c4ccc(O)cc4C[C@@H](CCCCCCCCC[S+]([O-])CCCC(F)(F)C(F)(F)F)[C@H]3[C@@H]1CC[C@@H]2O (some centres unmarked) [fulvestrant]
- solubility [3]: poor solubility
- patients with residual ER activity by FES-PET [4]: 38%
